The numbers were not newly measured in patent US20120237456A1, “ORAL COMPOSITIONS CONTAINING EXTRACTS OF GARCINIA MANGOSTANA L. AND RELATED METHODS” (Colgate-Palmolive Company, priority 2009, published 2012), which cites them from elsewhere.

In one series the test system is cAMP phosphodiesterase. To be noted: reported by Chairungsrilerd and Takeuchi et al., 1996.
The target of another series is COX 1 (Homo sapiens, UniProt P23219). Conditions: Nakatani et al., 2002 and 2004.
The next series relates to DNA topoisomerase. Conditions: Tosa et al., 1997.
The test system of a further series is serotonin receptors. To be noted: Chairungsrilerd, Furukawa et al., 1996 and 1998.
For series [1] the following is noted: compared with BHA and a-tocopherol (vitamin E); Yoshikawa et al., 1994; Fan and Su, 1997.

COX 1, sequence (P23219 24-599): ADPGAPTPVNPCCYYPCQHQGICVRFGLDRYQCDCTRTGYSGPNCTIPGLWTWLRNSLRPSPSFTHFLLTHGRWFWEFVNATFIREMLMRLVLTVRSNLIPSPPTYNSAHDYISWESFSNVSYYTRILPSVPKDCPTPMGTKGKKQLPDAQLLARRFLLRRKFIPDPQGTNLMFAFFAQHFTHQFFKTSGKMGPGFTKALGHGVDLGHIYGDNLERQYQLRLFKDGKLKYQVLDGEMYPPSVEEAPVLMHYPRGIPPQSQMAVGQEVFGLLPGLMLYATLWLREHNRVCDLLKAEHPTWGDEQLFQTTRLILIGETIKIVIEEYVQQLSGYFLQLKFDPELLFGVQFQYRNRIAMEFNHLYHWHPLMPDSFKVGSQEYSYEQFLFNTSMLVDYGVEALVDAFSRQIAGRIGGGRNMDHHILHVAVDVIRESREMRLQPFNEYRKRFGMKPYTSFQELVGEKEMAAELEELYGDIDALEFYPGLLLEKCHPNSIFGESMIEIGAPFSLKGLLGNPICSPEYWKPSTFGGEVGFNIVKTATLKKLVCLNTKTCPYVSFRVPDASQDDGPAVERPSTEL

For the molecule `COc1c(O)cc2oc3cc4c(c(O)c3c(=O)c2c1CC=C(C)C)CC(O)C(C)(C)O4` (centres unmarked) [Mangostanol], in the series with cAMP phosphodiesterase, the “inhibition of cAMP phosphodiesterase” value was “strong inhibition”.
On to `CC(C)=CCc1c(O)cc2oc3cc(O)c(O)c(CC=C(C)C)c3c(=O)c2c1O` [γ-mangostin], for which the “inhibition of the activity of cyclooxygenase COX 1” value on COX 1 was “directly inhibit”. The “inhibition of DNA topoisomerase” value with DNA topoisomerase is given as “inhibit”. In addition, in the series with serotonin receptors, the “antagonism of serotonin receptors” value is on record as “antagonist”. Besides, the antioxidative activity result in series [1] is listed as “more potent antioxidative activity than BHA”.
